Data on 2 compounds can be found in publication PMC12257413, “Discovery of a Novel sp^3‑Rich M1 Positive Allosteric Modulators (PAMs) Chemotype via Scaffold Hopping” (ACS Medicinal Chemistry Letters, 2025).

Converted amounts (≈) assume the structure as drawn. Read-outs that look alike come from different tables or passages of the source.

One series is described as follows: ElogD 7.4. The series is classed as physicochemical. Particulars: pH 7.4. The text has this: 4 Detailed In Vitro and In Vivo Profiles for Selected M1 PAMs ^a | column: 17k; 17g
A further series in a line: Aqueous solubility. The format is physicochemical. The following applies: aqueous solution, aqueous buffer.
Series [1] addresses T1, rat muscarinic receptor subtype 1 (M1) (Rattus norvegicus, UniProt P08482).
T1 construct: expressed in transfected cells
T1 sequence (P08482 1-460): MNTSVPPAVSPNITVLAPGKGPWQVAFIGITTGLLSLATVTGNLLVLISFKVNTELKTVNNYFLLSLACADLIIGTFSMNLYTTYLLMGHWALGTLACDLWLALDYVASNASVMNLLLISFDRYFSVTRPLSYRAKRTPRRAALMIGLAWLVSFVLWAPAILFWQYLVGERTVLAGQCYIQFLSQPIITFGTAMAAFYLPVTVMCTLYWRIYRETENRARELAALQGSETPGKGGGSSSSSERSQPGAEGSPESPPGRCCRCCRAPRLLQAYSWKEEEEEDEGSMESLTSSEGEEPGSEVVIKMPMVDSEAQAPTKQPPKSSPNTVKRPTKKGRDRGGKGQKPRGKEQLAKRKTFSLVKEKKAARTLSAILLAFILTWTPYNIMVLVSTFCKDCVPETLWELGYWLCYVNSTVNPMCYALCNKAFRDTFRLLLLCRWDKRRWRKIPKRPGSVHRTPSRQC
As to the kind of experiment: Calcium mobilization assay in rM1-CHO cells, PAM activity with EC20 acetylcholine. The series is classed as cell-based. Particulars: for EC50: read-out: rM1 pEC50 ± SEM (converted). The protocol: page 2: Procedures for Biological Experiments Calcium mobilization assays: To measure the functional activity of positive allosteric modulator (PAM) compounds in a cellular assay, human or rat muscarinic receptor subtype 1 (M1) was stably expressed in the Chinese hamster ovary (CHO) cells to evoke an increase in intracellular calcium to an EC20 concentration of acetylcholine (ACh) agonist. The stable M1-CHO cells were cultured in F12 medium containing 10% fetal bovine serum, 20 mM HEPES, 100 units/mL antibiotics/antimycotic, 0.5 mg/ml G418. All reagents used were from Life Technologies (Carlsbad, CA) unless otherwise noted. Briefly, the day before the assay, stable M1-CHO cells (15,000 cells/20 μL/well) were plated in black-walled, clear-bottomed, 384 well plates (Greiner Bio-One, Monroe, NC) in the culture medium without G418, and then incubated overnight at 37 °C in the presence of 5% CO2. The next day, calcium assay buffer (Hank’s balanced salt solution (HBSS), 20 mM HEPES, 2.5 mM Probenecid, 4.16 mM sodium bicarbonate (Sigma-Aldrich, St. Louis, MO) was prepared to dilute […] calcium indicator dye. […] curves in DMSO using the Bravo Liquid Handler (Agilent, Santa Clara, CA), transferred to a 384 well daughter plates using an Echo acoustic liquid handler (Beckman Coulter, Indianapolis, Indiana), and diluted in assay Buffer to a 2X final concentration. The agonist plates were prepared using acetylcholine (ACh, Sigma-Aldrich, St. Louis, MO) concentrations for the EC20 and ECMAX responses by diluting in assay buffer to a 5X final concentration. The 2X dye solution (2.3 µM) was prepared by mixing a 2.3 mM Fluo-4-AM stock in DMSO with 10% (w/v) pluronic acid F- 127 in a 1:1 ratio in assay buffer. Using a microplate washer (BioTek, Winooski, VT), cells were washed with assay buffer for 3 times to remove medium. After the final wash, 20 μL of assay buffer remained in the cell plates. Immediately, 20 μL of the 2X dye solution (final 1.15 µM) was added to each well of the cell plate using a Multidrop Combi dispenser (Thermo Fisher, Waltham, MA). After cells were incubated with the dye solutions for 45 min at 37 °C in the presence of 5% CO2, the dye solutions were removed and replaced with assay buffer using a microplate washer, leaving 20 μL of assay buffer in the cell plate. The compound, agonist, and cell plates were placed inside the Functional Drug Screening System uCell (FDSS uCell, Hamamatsu, Japan) to measure the calcium flux. The triple add protocol was used to measure Ca kinetics; Compound, ACh for EC20, and ACh for ECMAX adds in an order. Briefly, after establishment of a fluorescence baseline S2 page 3: for 2 seconds (excitation, 480 nm; emission, 530 nm), first add occurred by adding 20 µL of test compound to the cells, and the response was measured for 140 seconds. This is followed by second add; 10 µL (5X) of an EC20 concentration of ACh agonist was added to the cells, and the response of the cells was measured for 125 seconds. Immediately, the third add occurred by adding 12 ul assay buffer or 5X of an EC max concentration of ACh and the response of the cells was measured for 90 seconds. Assay buffer was added to the wells that incubated with compounds followed by EC20 concentration of ACh. Agonists containing ECmax concentration of ACh were added to the wells that incubated with DMSO and assay buffer from the 1st and 2nd adds to measure maximum Ca responses (ECmax). Calcium fluorescence was recorded as fold over basal fluorescence and raw data were normalized to the maximal response to ACh agonist. […]

Where [2] appears, read: pH 2.2, read-out: Solubility pH = 2.2.
Where [3] appears, read: pH 6.8, read-out: Solubility pH = 6.8.

With `Cn1cc(-c2ccc(Cc3cc(C(=O)N[C@H]4CCOC[C@@H]4O)nn3C3CCCC3)cc2)cn1` [17g], the chromatographic logD in “ElogD 7.4” was 3.05. Further, the solubility in the series “Aqueous solubility” (setting [2]) worked out at 84.6 µM (≈ 38 µg/mL). Moreover, in “Aqueous solubility” (setting [3]), the solubility was found to be 80.7 µM (≈ 36.3 µg/mL). In series [1], the “rM1 %ACh Max ± SEM” value came to 83 ± 4.1 %ACh Max and the EC50 is 347 nM.
As to `Cn1cc(-c2ccc(Cc3cc(C(=O)N[C@H]4CCCC[C@@H]4O)nn3C3CCCC3)cc2)cn1` [17k], in “ElogD 7.4”, the chromatographic logD was found to be 4.15. Further, the solubility in “Aqueous solubility” (setting [2]) is 10.8 µM (≈ 4.83 µg/mL); in the series “Aqueous solubility” (setting [3]), < 1.12 µM. Further, the “rM1 %ACh Max ± SEM” value in series [1] is given as 83 ± 2.8 %ACh Max. Besides, the EC50 in series [1] is 490 nM.

A word on the chromatographic logD: it is lipophilicity estimated from chromatographic retention. A high value points to higher lipophilicity. The term solubility denotes the concentration that dissolves in the medium under given conditions.
